Measured values as given in patent US11980607B2, “Methods of treating malignant lymphoproliferative disorders” (Actuate Therapeutics Inc., priority 2018, dated 2024).

Experiments:
[1] = tested on: Caspase 3/7 activity in lymphoma cells; assay: EnzChek Caspase 3 assay; format: cell-based; conditions: 24 hours
Description: An EnzChek caspase 3 assay (Thermo Fisher Scientific) was performed in accordance with the manufacturer's instructions. 100,000 cells were plated in a 12-well plate and treated with varying concentrations of 9-ING-41 for 24 hours in duplicate. At the end of treatment, cells were centrifuged at 200 rcf for 5 minutes and washed once with 1× PBS and lysed in 50 μL of 1× lysis buffer provided by the kit. For efficient lysis, cells were subjected to a single freeze-thaw cycle. The lysed cells were centrifuged again to remove cell debris, and the supernatant was used in the assay. 50 μL of 2× substrate working solution containing Z-DEVD-R110 substrate was added to the cell lysate, with a subsequent incubation at room temperature for 45 minutes. […] Both of these products were then measured using a Biotek synergy 2 fluorescent plate reader at corresponding wavelengths (excitation 496 nm/emission 520 nm). The fluorescent reading was normalized to the amount of protein in the cell lysate as determined via standard BCA assay (Pierce Thermo Fisher Scientific). Relative fluorescence was calculated after setting the no-treatment control to 1. […]

[2] = tested on: NF-κB, DNA damage and apoptotic pathways in lymphoma cell lines; assay: Luminex analysis of NF-κB, DNA damage and apoptotic pathway signaling; format: cell-based; conditions: 1 μM, 48 hours
Description: Signaling changes in NF-κB [MILLIPLEXMAP NF-κB Signaling Magnetic Bead Kit 6-plex Kit, EMD Millipore, analytes: c-MYC, FADD (Ser194), IκBα (Ser32), IKKα/β (Ser177/Ser181), NF-κB (Ser536), TNFR1], DNA damage [MILLIPLEX MAP DNA Damage/Genotoxicity Magnetic Bead Panel, EMD Millipore, analytes: ATR (total), Chk1 (Ser345), Chk2 (Thr68), H2A.X (Ser139), MDM2 (total), p21 (Total), p53 (Ser15)], and apoptotic pathways [Bio-plex pro RBM apoptosis panel 2 and 3, Bio-Rad, analytes: Bad, Bax/Bcl-2 dimer, Bcl-xL, Bim, Mcl-1, active caspase 3, Bcl-xL/Bak dimer, Mcl-1/Bak dimer, survivin] associated with 1 μM 9-ING-41 treatment for 48 hours as compared to no-treatment controls were determined using Luminex multiplex technology with a FLEXMAP 3D instrument, as per manufacturer instructions. Cells were lysed in MILLIPLEX MAP Lysis buffer supplemented with protease inhibitor cocktail (Sigma) and phosphatase inhibitor cocktails 2 and 3 (Sigma) and, after BCA protein determination, 15 μg of protein was added to each well. All samples were run in duplicate and changes in MFI or absolute quantity between 9-ING-41-treated cells and nontreated control were analyzed, and an unpaired t-test was performed to determine statistical significance.

[3] = tested on: purified normal unstimulated T lymphocytes or peripheral blood mononuclear cells; assay: Apoptosis assay in normal cells; format: cell-based, human; conditions: even at 10.0 μM 9-ING-41
Description: Unstimulated peripheral blood B- and T-lymphocytes isolated from a healthy donor were used as normal control. Pro-apoptotic effect of the GSK3 inhibitor 9-ING-41 in various MCL and TCL lines (A) and DLBCL lines (B). (C) Cell proliferation profile of various lymphoma cell lines upon treatment with 9-ING-41. Results (A-C) are from 3 independent experiments.
Cells were seeded at 5×10^5 cells/well in 24 well plates, and incubated with 9-ING-41 at indicated concentrations for 48 hours. The cells were then stained with FITC conjugated Annexin V (Life Technologies) and Propidium Iodide followed by analysis on a BD FACS Calibur flow cytometer.
Given that both GSK3α and GSK3β are overexpressed in lymphoma cells, and that both enzymes are implicated in multiple signaling pathways critical for cell functions, whether GSK3α and GSK3β are functionally supporting the survival and proliferation of lymphoma cells was examined. […] The inhibitory concentrations of 9-ING-41 at half of the maximal effect (IC50) on cell survival of various lymphoma cell lines was calculated (Table 1).

Jeko derived xenograft = assay: Jeko derived MCL xenograft mouse model; format: in vivo; conditions: NSG mice, 40 mg/kg every other day IP, day 17
Description: The images shown were collected at the end of the experiment (day 17). […] An MCL xenograft mouse model was established by subcutaneously injecting NGS mice with Jeko cells expressing the firefly luciferase reporter gene Fluc. NSG (NOD.Cg-PrkdcscidIl2rgtm1Wjl/SzJ) mice used in these experiments were purchased from the Jackson Laboratory (Bar Harbor, Maine). Eight to ten mice of same sex at 8 weeks of age were subcutaneously injected with 5×10^6 Fluc expressing Jeko cells in the right flanks. Tumor engraftment was verified by imaging 4 days after Jeko cell inoculation. […] Tumor volumes were measured by an IVIS Imager (Xenogen, Alameda, CA) 20 minutes after IP injection of 200 ul of 15 mg/ml D-leuciferin (GoldBio, St. Louis, MO) and anesthetized with 2.5% isoflurane. All imaging variables were kept consistent for comparativeness. The experiment terminated when the largest tumor met the size limit of the IACUC protocol.

SMILES: Cn1cc(C2=C(c3coc4ccc(F)cc34)C(=O)NC2=O)c2cc3c(cc21)OCO3 [9-ING-41, 3-(5-Fluorobenzofuran-3-yl)-4-(5-methyl-5H-[1,3]dioxolo[4,5-f]indol-7-yl)pyrrole-2,5-dione]
- Concentration giving an increase in Caspase 3/7 activity [1]: ≥ 0.5 µM
- Total c-MYC levels ([2]; Karpas 422 and TMD8 cell lines): significant reduction
- DNA damage signaling, p-H2A.X (Ser139) ([2]; SUDHL-4 and Karpas 422 cell lines, p<0.05): increased
- phospho-p53 (Ser15) ([2]; SUDHL-4 and TMD8 cells): significant increase
- Reduction in Bcl-x1/Bak dimer expression ([2]; all cell lines except TMD8, p<0.05): ~1.5 fold
- Reduction in Mcl-1/Bak dimers ([2]; all lymphoma cell lines except KPUM-UH1, p<0.05): ~2 fold
- Active caspase 3 ([2]; all lymphoma cell lines except TMD8): increase in active caspase 3
- Reduction in survivin ([2]; all lymphoma cell lines except TMD8, p<0.05): ~2 fold
- Apoptosis in normal cells [3]: no significant apoptosis
- Tumor size and luciferase activity versus control (Jeko derived xenograft): smaller tumors with much lower luciferase activity
